# Measurements published in patent US10174037B2, “Dihydropyrazolopyrimidinone compounds as PDE2 inhibitors” (Merck Sharp & Dohme Corp., priority 2015, dated 2019).
# Like-named read-outs stand apart in the source and are kept apart here.
# What was measured:
# [1] = biological target: Rhesus PDE2A3 (Macaca mulatta, UniProt B3VTJ2); test: PDE2 fluorescence polarization (IMAP FP) assay, rhesus PDE2A3; format: biochemical, rhesus macaque
# Description: A Labcyte Echo 555 (Labcyte, Sunnyvale, Calif.) is used to dispense 200 nL from each well of the titration plate to the 384 well assay plate. Ten microliters of a solution of enzyme (1/2000 final dilution from aliquots; sufficient to produce 20% substrate conversion) was added to the assay plate. Next 10 uL of a separate solution of the substrate FAM-labeled cAMP (50 nM final concentration product # R7506 from Molecular Devices) and the activator cGMP (1 uM final concentration), prepared in the assay buffer (10 mM Tris HCl, pH 7.2, 10 mM MgCl2, 0.05% NaN3 0.01% Tween-20, and 1 mM DTT) was added to the assay plate and shaken to mix. The reaction is allowed to proceed at room temperature for 60 minutes. A binding solution is then made from the kit components, comprised of 80% Solution A, 20% Solution B and binding reagent at a volume of 1/600 the total binding solution. The enzymatic reaction is stopped by addition of 60 μL of the binding solution to each well of the assay plates and the plates are sealed and shaken for 30 seconds. The plate was incubated at room temperature for at least one hour prior to determining the fluorescence polarization (FP). The parallel and perpendicular fluorescence of each well of the plate was measured using a Tecan Genios Pro plate reader (Tecan, Switzerland) or Perkin Elmer EnVision™ plate reader (Waltham, Mass.). Fluorescence polarization (mP) was calculated from the parallel (S) and perpendicular (P) fluorescence of each sample well and the analogous values for the median control well, containing only substrate (So and Po), using the following equation: Polarization (mP)=1000*(S/So−P/Po)/(S/So+P/Po).
# Dose-inhibition profiles for each compound were characterized by fitting the mP data to a four-parameter equation given below.
# An apparent (KM) for FAM-labeled cAMP of ˜10 uM was used.
# [2] = biological target: human PDE2A1 (Homo sapiens (Human), UniProt O00408); test: PDE selectivity IMAP FP assay, human PDE2A1; format: biochemical; conditions: Human PDE2
# How it was run: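 Compound titrations run against PDE2 in Tris HCl pH 7.2 buffer with MgCl2 and DTT for 60 min at room temperature, using 50 nM FAM-cAMP plus 1000 nM cGMP and enzyme giving 20% conversion.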
# [3] = Lab B, read-out: Rhesus PDE2 Ki (nM) Lab B
# [4] = Lab B, read-out: Human PDE2 Ki (nM) Lab B
# [5] = Lab A, read-out: Rhesus PDE2 Ki (nM) Lab A
# [6] = Lab A, read-out: Human PDE2 Ki (nM) Lab A
# Sequence of human PDE2A1 (O00408 other isoform, or with tags, fused parts or gaps): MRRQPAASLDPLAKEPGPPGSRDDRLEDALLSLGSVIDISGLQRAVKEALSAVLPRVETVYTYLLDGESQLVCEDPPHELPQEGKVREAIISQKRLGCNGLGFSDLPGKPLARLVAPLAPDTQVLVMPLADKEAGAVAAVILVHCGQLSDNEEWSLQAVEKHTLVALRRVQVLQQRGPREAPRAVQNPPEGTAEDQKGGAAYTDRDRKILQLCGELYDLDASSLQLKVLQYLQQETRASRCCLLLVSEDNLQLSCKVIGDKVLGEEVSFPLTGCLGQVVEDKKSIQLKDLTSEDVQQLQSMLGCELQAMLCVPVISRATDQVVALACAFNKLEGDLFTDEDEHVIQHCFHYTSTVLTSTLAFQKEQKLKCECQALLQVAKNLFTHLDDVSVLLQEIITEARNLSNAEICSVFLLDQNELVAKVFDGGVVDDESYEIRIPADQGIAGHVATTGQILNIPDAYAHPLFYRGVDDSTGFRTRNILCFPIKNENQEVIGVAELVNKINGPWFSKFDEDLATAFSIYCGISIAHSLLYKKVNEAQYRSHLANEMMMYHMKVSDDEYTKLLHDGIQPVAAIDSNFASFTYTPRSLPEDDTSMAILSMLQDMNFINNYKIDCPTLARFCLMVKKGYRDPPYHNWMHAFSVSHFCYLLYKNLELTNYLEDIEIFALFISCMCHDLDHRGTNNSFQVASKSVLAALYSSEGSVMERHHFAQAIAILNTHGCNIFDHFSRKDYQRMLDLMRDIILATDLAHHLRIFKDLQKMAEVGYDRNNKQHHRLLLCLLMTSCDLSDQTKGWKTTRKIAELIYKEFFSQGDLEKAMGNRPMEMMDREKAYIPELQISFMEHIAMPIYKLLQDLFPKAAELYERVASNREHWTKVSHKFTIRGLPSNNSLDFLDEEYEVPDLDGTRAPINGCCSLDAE
# Sequence of Rhesus PDE2A3 (B3VTJ2 1-941): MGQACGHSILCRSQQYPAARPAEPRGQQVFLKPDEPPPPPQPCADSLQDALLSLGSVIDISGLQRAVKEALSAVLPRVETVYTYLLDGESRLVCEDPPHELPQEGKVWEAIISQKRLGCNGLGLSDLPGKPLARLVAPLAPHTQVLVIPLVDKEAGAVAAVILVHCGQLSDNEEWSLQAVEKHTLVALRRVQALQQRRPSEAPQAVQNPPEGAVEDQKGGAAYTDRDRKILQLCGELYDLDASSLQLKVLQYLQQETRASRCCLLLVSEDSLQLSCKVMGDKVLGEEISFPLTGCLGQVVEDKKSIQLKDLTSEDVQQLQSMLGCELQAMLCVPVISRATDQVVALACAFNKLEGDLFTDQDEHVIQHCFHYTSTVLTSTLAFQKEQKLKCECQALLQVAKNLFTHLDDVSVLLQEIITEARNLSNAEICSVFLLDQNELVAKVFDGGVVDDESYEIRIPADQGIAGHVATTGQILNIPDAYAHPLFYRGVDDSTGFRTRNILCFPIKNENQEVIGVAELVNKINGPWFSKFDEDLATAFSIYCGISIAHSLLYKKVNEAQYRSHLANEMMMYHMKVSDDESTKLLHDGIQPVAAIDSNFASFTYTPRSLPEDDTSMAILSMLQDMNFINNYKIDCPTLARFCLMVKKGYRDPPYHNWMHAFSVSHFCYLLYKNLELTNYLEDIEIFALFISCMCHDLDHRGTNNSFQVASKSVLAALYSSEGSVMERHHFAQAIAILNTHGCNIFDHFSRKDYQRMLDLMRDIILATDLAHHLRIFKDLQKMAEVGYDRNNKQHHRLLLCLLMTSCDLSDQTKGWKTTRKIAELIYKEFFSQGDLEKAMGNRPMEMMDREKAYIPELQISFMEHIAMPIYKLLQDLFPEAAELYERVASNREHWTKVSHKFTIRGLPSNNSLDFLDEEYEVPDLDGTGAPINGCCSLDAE
"Ki [1, 3] [nM]","Ki [2, 4] [nM]","Ki [1, 5] [nM]","Ki [2, 6] [nM]","Ki ([1]; Rhesus PDE2 Ki (nM) Lab B, Lab B) [nM]",Structure (SMILES)
21,13,,,,"CC(c1ccc(OC(F)(F)F)cc1)n1nc(CC(F)(F)F)c2c(=O)[nH]c(O)nc21 (racemic) [Example 230, 6-Hydroxy-3-(2,2,2-trifluoroethyl)-1-(1-(4-(trifluoromethoxy)phenyl)ethyl)-1H-pyrazolo[3,4-d]pyrimidin-4(5H)-one]"
25,18,,,,"CC(c1ccc(S(F)(F)(F)(F)F)cc1)n1nc(CC(F)(F)F)c2c(=O)[nH]c(O)nc21 (racemic) [Example 231, 6-Hydroxy-3-(2,2,2-trifluoroethyl)-1-(1-(4-(pentafluorosulfanyl)phenyl)ethyl)-1H-pyrazolo[3,4-d]pyrimidin-4(5H)-one]"
12,6.1,,,,"CC(c1ccc(C(C)(C)C)cc1)n1nc(CO)c2c(=O)[nH]c(N(C)C)nc21 (single isomer, unassigned) [Example 66, (R)- or (S)-1-(1-(4-tert-Butylphenyl)ethyl)-6-(dimethylamino)-3-(hydroxymethyl)-1H-pyrazolo[3,4-d]pyrimidin-4(5H)-one]"
11,7.1,,,,"CC(c1ccc(C(F)(F)F)c(F)c1)n1nc(CO)c2c(=O)[nH]c(N(C)C)nc21 (single isomer, unassigned) [Example 68, (R)- or (S)-6-(Dimethylamino)-1-(1-(3-fluoro-4-(trifluoromethyl)phenyl)ethyl)-3-(hydroxymethyl)-1H-pyrazolo[3,4-d]pyrimidin-4(5H)-one]"
0.27,0.27,,,,"CC(c1ccc(C(F)(F)F)c(F)c1)n1nc(CO)c2c(=O)[nH]c(N(C)C)nc21 (single isomer, unassigned) [Example 69, (S)- or (R)-6-(Dimethylamino)-1-(1-(3-fluoro-4-(trifluoromethyl)phenyl)ethyl)-3-(hydroxymethyl)-1H-pyrazolo[3,4-d]pyrimidin-4(5H)-one]"
0.95,0.75,,,,"CC(c1ccc(CC(F)(F)F)cc1)n1nc(CO)c2c(=O)[nH]c(N(C)C)nc21 (single isomer, unassigned) [Example 71, (S)- or (R)-6-(Dimethylamino)-3-(hydroxymethyl)-1-(1-(4-(2,2,2-trifluoroethyl)phenyl)ethyl)-1H-pyrazolo[3,4-d]pyrimidin-4(5H)-one]"
0.25,0.16,,,,"CCC(c1ccc(C(F)(F)F)cc1)n1nc(CO)c2c(=O)[nH]c(N(C)C)nc21 (single isomer, unassigned) [Example 73, (S)- or (R)-6-(Dimethylamino)-3-(hydroxymethyl)-1-(1-(4-(trifluoromethyl)phenyl)propyl)-1H-pyrazolo[3,4-d]pyrimidin-4(5H)-one]"
0.15,0.17,,,,"CN(C)c1nc2c(c(CO)nn2C(c2ccc(C(F)(F)F)cc2)C2CC2)c(=O)[nH]1 (single isomer, unassigned) [Example 74, (R)- or (S)-1-(Cyclopropyl(4-(trifluoromethyl)phenyl)methyl)-6-(dimethylamino)-3-(hydroxymethyl)-1H-pyrazolo[3,4-d]pyrimidin-4(5H)-one]"

# The remaining lines, values behind:
Structure (SMILES),"Ki [1, 3] [nM]","Ki [2, 4] [nM]","Ki [1, 5] [nM]","Ki [2, 6] [nM]","Ki ([1]; Rhesus PDE2 Ki (nM) Lab B, Lab B) [nM]"
"CC(c1ccc(C(F)(F)F)c(F)c1)n1nc(CO)c2c(=O)[nH]c(O)nc21 (single isomer, unassigned) [Example 1]",13,11,,,
"CC(C)C(c1ccc(C(F)(F)F)cc1)n1nc(CO)c2c(=O)[nH]c(O)nc21 (single isomer, unassigned) [Example 13, (S)- or (R)-6-Hydroxy-3-(hydroxymethyl)-1-(2-methyl-1-(4-(trifluoromethyl)phenyl)propyl)-1H-pyazolo[3,4-d]pyrimidin-4(5H)-one]",9.2,8.3,,,
"CC(c1ccc(C(F)(F)F)cc1)n1nc(CO)c2c(=O)[nH]c(O)nc21 (single isomer, unassigned) [Example 19, (S)- or (R)-6-Hydroxy-3-(hydroxymethyl)-1-{1-[4-(trifluoromethyl)phenyl]ethyl}-1,5-dihydro-4H-pyrazolo[3,4-d]pyrimidin-4-one]",20,24,14,9,
"CC(c1ccc(S(F)(F)(F)(F)F)cc1)n1nc(CO)c2c(=O)[nH]c(O)nc21 (single isomer, unassigned) [Example 21, (S)- or (R)-6-Hydroxy-3-(hydroxymethyl)-1-{1-[4-(pentafluorosulfanyl)phenyl]ethyl}-1,5-dihydro-4H-pyrazolo[3,4-d]pyrimidin-4-one]",27,28,20,13,
"CC(C)C(c1ccc(C(F)(F)F)c(F)c1)n1nc(CO)c2c(=O)[nH]c(O)nc21 (single isomer, unassigned) [Example 27, (R)- or (S)-1-(1-(3-Fluoro-4-(trifluoromethyl)phenyl)-2-methylpropyl)-6-hydroxy-3-(hydroxymethyl)-1H-pyrazolo[3,4-d]pyrimidin-4(5H)-one]",5.2,7,,,
"CC(C)C(c1ccc(OC(F)(F)F)cc1)n1nc(CF)c2c(=O)[nH]c(O)nc21 (single isomer, unassigned) [Example 42, (R)- or (S)-3-(Fluoromethyl)-6-hydroxy-1-(2-methyl-1-(4-(trifluoromethoxy)phenyl)propyl)-1H-pyrazolo[3,4-d]pyrimidin-4(5H)-one]",,14,,,16
"CC(C)C(c1ccc(OC(F)(F)F)cc1)n1nc(CF)c2c(=O)[nH]c(O)nc21 (single isomer, unassigned) [Example 43, (S)- or (R)-3-(Fluorornethyl)-6-hydroxy-1-(2-methyl-1-(4-(trifluoromethoxy)phenyl)propyl)-1H-pyrazolo[3,4-d]pyrimidin-4(5H)-one]",4.7,5.3,,,
"O=c1[nH]c(O)nc2c1c(CF)nn2C(c1ccc(OC(F)(F)F)c(F)c1)C1CC1 (single isomer, unassigned) [Example 44]",9.8,10,,,
"O=c1[nH]c(O)nc2c1c(CF)nn2C(c1ccc(OC(F)(F)F)c(F)c1)C1CC1 (single isomer, unassigned) [Example 45]",29,28,,,
"CC(C)C(c1ccc(C(F)(F)F)c(F)c1)n1nc(CF)c2c(=O)[nH]c(O)nc21 (single isomer, unassigned) [Example 55]",1.3,0.96,,,
"CC(C)C(c1ccc(C(F)(F)F)c(F)c1)n1nc(CF)c2c(=O)[nH]c(O)nc21 (single isomer, unassigned) [Example 56]",36,37,,,
"CN(C)c1nc2c(c(CO)nn2C(c2ccc(C(F)F)cc2)C2CC2)c(=O)[nH]1 (single isomer, unassigned) [Example 62]",0.28,0.27,,,
"CC(C)C(c1ccc(C(F)(F)F)cc1)n1nc(CO)c2c(=O)[nH]c(N(C)C)nc21 (single isomer, unassigned) [Example 64, (R)- or (S)-6-Dimethylamino)-3-(hydroxymethyl)-1-(2-methyl-1-(4-(trifluoromethyl)phenyl)propyl)-1H-pyrazolo[3,4-d]pyrimidin-4(5H)-one]",0.39,0.29,,,
"CC(C)C(c1ccc(C(F)(F)F)cc1)n1nc(CO)c2c(=O)[nH]c(N(C)C)nc21 (single isomer, unassigned) [Example 65, (S)- or (R)-6-Dimethylamino)-3-(hydroxymethyl)-1-(2-methyl-1-(4-(trifluoromethyl)phenyl)propyl)-1H-pyrazolo[3,4-d]pyrimidin-4(5H)-one]",0.076,0.069,,,
